Data on one molecule can be found in patent EP1101492A1, “NOVEL REMEDIES FOR ALLERGIC DISEASES” (FUJI YAKUHIN KOGYO KABUSHIKI KAISHA, priority 1998, dated 2000).

“And” between values parts separate entries of the source, which are not always exact repeats. Identical values can stand only once.

The nature of series [1]: Body weight gain in sensitized mice. It counts as in vivo. The conditions noted are these: test compound 50 µg/ear/dose, prednisolone 5 µg/ear/dose, in ethanol painted twice a day, Days 1, 4 and 7, vs solvent control (ethanol). As to the method: Experimental atopic dermatitis model mice sensitized in the same manner as in Example 1 were examined for influence on body weight gains.
Each mouse was measured for its body weight not only immediately before the start in painting but also on Days 1, 4 and 7 after the start in painting. Each gain in body weight was calculated and considered to indicate an effect on body weight changes affected by said treatments.

The subject of the next series is NC/Jic mice. Kind of series: Spontaneously manifested allergic dermatitis in NC/Jic mice (ointment). It counts as in vivo. As for the experimental part:
Compound No. 130 was well blended with an equivalent mixture of polyethylene glycol 400 and polyethylene glycol 4000 to give an approximately homogeneous product. Thus, an ointment containing the test compound at a rate of 0.1% was prepared. For control groups, an ointment base alone was employed.
Male NC/Jic mice (body weight, 24.1 to 31.9 g; age, 12 to 24 weeks old; supplier, Clea Japan, Inc.) were checked for their health after purchase. Immediately after the health check, the mice were housed under conventional conditions until dermatitis occurred. Mouse heads surrounding auricle portions were observed by eye once daily during the preparatory housing and, after a start in painting with ointments, once daily prior to painting. The severity of spontaneous dermatitis was scored according to a pre-assigned sore table (Table 8) for the observation of dermatitis. Animals seriatim used in the experiment were selected from those showing signs of dermatitis with score 1 or 2 for 3 consecutive days or longer.
The ointment was warmed to about 37°C prior to administration, and open-painted onto diseased sites at 100 mg/dosage/day. Seven weeks were set as a drug application period.

Take `CNC(=O)[C@H](Cc1ccc(NC(=N)N)cc1)NC(=O)[C@H](CC(C)C)C(CCCc1ccccc1)C(=O)NO` (single isomer, unassigned) [Compound No. 130, N-[4-(N-Hydroxyamino)-2(R)-isobutyl-3(R or S)-(3-phenyltrimethylene)succinyl)-L-4'-guanidophenylalanine-N-methylamide 1 acetate]: the “gain in body weight (FIG. 10)” value in series [1] is “almost equivalent to that in the solvent control group”. Besides, in the series with NC/Jic mice (0.1 % ointment, 100 mg/dosage/day for seven weeks, score (0-4) on Day 49, 3 animals, ointment base 3.7 ± 0.6), the “Dermatitis Score (Average ± S. D.*)” value turned out to be 2.3 ± 1.5. In the series on NC/Jic mice (0.1% ointment, counted for 30 minutes before painting, Days 47 to 48, ointment base 126, 138, 206), the “scratching actions (individual animals)” value was 19 scratching actions and 81 scratching actions and 177 scratching actions. Moreover, in the series with NC/Jic mice (0.1% ointment, counted for 30 minutes before painting, Days 47 to 48, ointment base average 157), the “scratching actions (average)” value amounted to 92 scratching actions.
